Measured values from patent US20170067909A1, “ASSAY-READY RECOMBINANT CELLS TRANSIENTLY OVEREXPRESSING GENES ENCODING DRUG TRANSPORTER PROTEINS AND/OR DRUG METABOLIZING ENZYMES” (Corning Incorporated, priority 2012, published 2017).

What was measured:
[1] = molecular target: T1, OATP1B1*1a (Homo sapiens, UniProt Q9Y6L6); conditions: read-out: Km, SLC Transporter Cells; substrate 0.25 to 40 μM, incubation 1 min
T1 sequence (Q9Y6L6 1-691): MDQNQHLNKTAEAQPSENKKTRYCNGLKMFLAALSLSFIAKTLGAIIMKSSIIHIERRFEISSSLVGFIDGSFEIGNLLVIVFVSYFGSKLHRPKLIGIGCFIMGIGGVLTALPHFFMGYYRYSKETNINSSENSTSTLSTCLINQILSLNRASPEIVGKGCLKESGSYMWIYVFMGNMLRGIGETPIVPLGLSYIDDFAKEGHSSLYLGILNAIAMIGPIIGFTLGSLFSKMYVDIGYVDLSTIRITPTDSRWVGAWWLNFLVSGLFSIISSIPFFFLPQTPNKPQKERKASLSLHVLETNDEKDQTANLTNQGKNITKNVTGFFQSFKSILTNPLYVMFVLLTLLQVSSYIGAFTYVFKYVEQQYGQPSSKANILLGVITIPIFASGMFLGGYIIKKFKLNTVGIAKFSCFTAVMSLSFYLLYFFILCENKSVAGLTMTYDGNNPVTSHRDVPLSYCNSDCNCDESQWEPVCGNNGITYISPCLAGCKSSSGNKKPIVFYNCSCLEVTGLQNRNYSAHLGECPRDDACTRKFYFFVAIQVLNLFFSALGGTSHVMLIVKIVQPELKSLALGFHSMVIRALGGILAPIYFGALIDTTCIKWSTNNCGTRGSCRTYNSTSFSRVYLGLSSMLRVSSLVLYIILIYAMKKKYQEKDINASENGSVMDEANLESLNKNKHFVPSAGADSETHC

[2] = system: dog Oatp1b4
[3] = molecular target: T2, rat Oatp1b2 (Rattus norvegicus, UniProt Q9QZX8)
T2 sequence (Q9QZX8 1-687): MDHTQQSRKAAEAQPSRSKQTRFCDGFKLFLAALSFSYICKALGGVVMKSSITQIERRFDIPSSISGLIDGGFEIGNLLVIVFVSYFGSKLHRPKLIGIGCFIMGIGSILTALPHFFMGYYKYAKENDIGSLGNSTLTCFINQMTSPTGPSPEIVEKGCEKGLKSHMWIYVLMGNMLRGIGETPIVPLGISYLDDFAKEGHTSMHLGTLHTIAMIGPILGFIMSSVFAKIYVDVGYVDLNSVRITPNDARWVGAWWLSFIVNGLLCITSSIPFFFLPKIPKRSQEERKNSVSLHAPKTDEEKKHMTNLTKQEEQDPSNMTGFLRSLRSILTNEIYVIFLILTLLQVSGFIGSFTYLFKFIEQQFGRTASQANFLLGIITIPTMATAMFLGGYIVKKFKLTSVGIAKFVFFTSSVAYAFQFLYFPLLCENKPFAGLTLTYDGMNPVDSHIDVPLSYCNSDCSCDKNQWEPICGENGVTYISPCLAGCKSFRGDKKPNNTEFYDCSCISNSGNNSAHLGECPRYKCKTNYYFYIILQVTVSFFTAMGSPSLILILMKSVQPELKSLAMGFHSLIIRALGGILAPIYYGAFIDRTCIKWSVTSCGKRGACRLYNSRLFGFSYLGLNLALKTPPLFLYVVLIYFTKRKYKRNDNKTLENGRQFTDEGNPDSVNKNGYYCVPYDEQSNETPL

[4] = molecular target: T3, Organic Anion-Transporting Polypeptide 1B1 (Homo sapiens, UniProt Q9Y6L6); assay: Suspension assay, centrifugation method, Corning TransportoCells OATP1B1*1a; assay type: in vitro ADME; conditions: 5× substrate solution containing 25 μM, 10 minutes at 37° C., 600 k cells/well
T3 construct: host or cells: HEK293 cells, gene delivered by electroporation
T3 sequence (Q9Y6L6 1-691): T1 sequence (Q9Y6L6 1-691)
Source text: In this experiment, a suspension assay for characterizing the activity of a drug transporter protein in cryopreserved, Corning® TransportoCells™ was developed. More specifically, the use of a centrifugation method versus a vacuum manifold for separating unreacted substrate in characterizing the activity of Organic Anion-Transporting Polypeptide 1B1 was investigated. Corning® TransportoCells™ transiently transfected with the gene OATP1B1*1a were obtained from Corning Life Sciences (Cat. No. 354859). In the Corning® TransportoCells™, the gene OATP1B1*1a was delivered into HEK293 cells via electroporation and the HEK293 cells were recovered and cryopreserved 1 hour post-electroporation. In order to obtain suitable expression of the Organic Anion-Transporting Polypeptide 1B1 encoded by OATP1B1*1a, the Corning® TransportoCells™ were thawed, cultured, and harvested.
The cells were cultured in T-175 Vented-Cap Culture Flasks with Poly-D-Lysine (hereinafter, “PDL”; available from Corning Life Sciences, Cat. No. 354539) with plating medium for 48 hours at 37° C. and 8% CO2. The plating medium is detailed in Table 16. After 24 hours, sodium butyrate (obtained from Sigma) was added to the cells to reach final 5 mM. After 48 hours, the cells were rinsed twice with Phosphate-Buffered Saline (hereinafter, “PBS”, obtained from Corning).
The cells were then harvested with 0.05% Trypsin (obtained from Sigma) and washed once with Hank's Balanced Salt Solution (hereinafter, “HBSS”) buffer (with Ca^2+ and Mg^2+, obtained from Corning). Then, the cells were resuspended in HBSS (obtained from Corning) to a final cell density of 3×10^6 cells/ml. Two suspension assay experiments were then performed to characterize the activity of Organic Anion-Transporting Polypeptide 1B1 in the Corning® TransportoCells™.
In a first suspension assay experiment, use of a centrifugation method was investigated to separate excess substrate and cells. Referencing FIG. 20, in the first suspension assay experiment, the resuspended Corning® TransportoCells™ were aliquotted (200 μl per well at a density of 600 k cells/well) into either a Corning® 96 Well Clear Round Bottom TC-Treated Microplate (available from Corning Life Sciences, Cat. No. 3799) or a Corning® 96 Well Clear V-Bottom TC-Treated Microplate (available from Corning Life Sciences, Cat. No. 3894). […] The cells were then incubated for 10 minutes at 37° C. After the incubation time, the reaction was stopped by adding ice cold HBSS buffer (50 μl) to the cells and placing the microplates on ice. Then, the microplates were centrifuged at 3000 g for 1 minute at 4° C. […] The cell lysis was then subjected to the appropriate protein analysis and/or fluorescence analysis to characterize the activity of Organic Anion-Transporting Polypeptide 1B1.

[5] = HEK-293 cells overexpressing the transporter

Compound	Km [1]	Km [2]	uptake of substrate (in words) [2, 5]	Km [3]	uptake of substrate (in words) [3, 5]	Uptake Activity OATP1B1 ([4]; Round Bottom)	Uptake Ratio ([4]; Round Bottom)	Uptake Activity OATP1B1 ([4]; V-Bottom)	Uptake Ratio ([4]; V-Bottom)
C[C@]12CC[C@@H]3c4ccc(O)cc4CC[C@H]3[C@@H]1CC[C@@H]2O[C@@H]1O[C@H](C(=O)O)[C@@H](O)[C@H](O)[C@H]1O [E17βG]	6.2 µM	12.2 ± 0.6 µM	significant uptake	9.6 ± 1.9 µM	significant uptake				
fluorescein methotrexate [FMTX]						0.38 pmol/mg/min	10.9	1.04 pmol/mg/min	102.3
